In US7547690B2, “Compounds for the treatment of Hepatitis C” (Bristol-Myers Squibb Company, priority 2007, dated 2009):
Read-outs that look alike come from different tables or passages of the source.

Legend:
[1] = system: HCV replicon cells; assay: HCV replicon FRET / luciferase assay; type: cell-based; details: 50% reduction in FRET or luciferase activity in HCV replicon cells, read-out: EC50
Method in brief: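 HCV replicon cells (with or without Renilla luciferase reporter) incubated with titrated compounds at 37° C; cytotoxicity read by Alamar blue. Replicon activity then read by NS3 cleavage of EDANS/DABCYL FRET peptide (20 μM final, 340/490 nm kinetic) or by luciferase; background from highest control-inhibitor wells subtracted; EC50 = concentration giving 50% signal reduction.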

[2] = molecular target: T1, HCV NS5B (Hepatitis C virus genotype 1b, UniProt Q9WMX2); assay: HCV NS5B RdRp enzyme assay (standard / modified); type: biochemical; details: HCV RdRp genotype 1b; standard or modified assay not specified; read-out: IC50
T1 construct: The protein was expressed with an 18 amino acid C-terminal truncation to enhance the solubility; made in house; host or cells: E. coli BL21(DE3)
Method in brief: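 Genotype 1b NS5B, 18-aa C-terminal truncation, E. coli-expressed; polyA template with biotin-oligo-dT12 primer, 3H-UTP (0.29 μM UTP), pH 7.5 Hepes, 2% DMSO, 30 °C, SPA read. Standard: 28 nM enzyme, 6 nM template, 180 nM primer, 60 min. Modified: 1.75 nM enzyme, 0.36 nM template, 20 nM bead-precaptured primer, 4 h; IC50 from seven concentrations, four-parameter fit.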

T1 sequence (Q9WMX2 2420-2992): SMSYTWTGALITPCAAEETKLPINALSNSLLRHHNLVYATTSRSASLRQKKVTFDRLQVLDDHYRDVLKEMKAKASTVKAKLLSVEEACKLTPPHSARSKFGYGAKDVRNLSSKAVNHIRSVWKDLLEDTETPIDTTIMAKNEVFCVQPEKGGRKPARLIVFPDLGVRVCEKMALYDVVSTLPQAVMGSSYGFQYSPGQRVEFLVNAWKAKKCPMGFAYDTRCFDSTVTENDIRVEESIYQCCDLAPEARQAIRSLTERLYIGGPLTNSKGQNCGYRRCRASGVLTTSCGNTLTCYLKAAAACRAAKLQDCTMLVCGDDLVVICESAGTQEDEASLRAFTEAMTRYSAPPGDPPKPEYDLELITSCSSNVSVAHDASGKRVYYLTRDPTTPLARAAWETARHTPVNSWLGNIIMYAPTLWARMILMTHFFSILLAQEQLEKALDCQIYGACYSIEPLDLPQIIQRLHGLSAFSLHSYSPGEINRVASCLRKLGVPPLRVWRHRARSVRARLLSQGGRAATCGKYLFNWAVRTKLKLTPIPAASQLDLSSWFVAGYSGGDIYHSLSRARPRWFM

Row | SMILES | EC50 ([1]; Hepatitis C virus) [nM] | IC50 [2] [nM] | EC50 [1] [nM]
1 | COc1ccc2c(c1)C1CC1(C(=O)N1CC3CCC1CN3)Cn1c-2c(C2CCCCC2)c2ccc(C(=O)NS(=O)(=O)C3CCCCC3)cc21 (stereo not drawn) | > 1000 | 2.4 to 500 | –
2 | COc1ccc2c(c1)C1CC1(C(=O)N1CC3COCC(C1)N3Cc1ccccc1)Cn1c-2c(C2CCCCC2)c2ccc(C(=O)NS(=O)(=O)N(C)C)cc21 (stereo not drawn) | 2.4 to 500 | 2.4 to 500 | –
3 | COc1ccc2c(c1)C1CC1(C(=O)N1C3COC[C@@H]1CN(C)C3)Cn1c-2c(C2CCCCC2)c2ccc(C(=O)NS(=O)(=O)CCC(F)(F)F)cc21 (stereo partly drawn) | 2.4 to 500 | 2.4 to 500 | –
4 | COc1ccc2c(c1)C1CC1(C(=O)N1C3CC1CN(C)C3)Cn1c-2c(C2CCCCC2)c2ccc(C(=O)NS(=O)(=O)C3CCCC3)cc21 (stereo not drawn) | 2.4 to 500 | 2.4 to 500 | –
5 | COc1ccc2c(c1)C1CC1(C(=O)N1C3CC1CN(C)C3)Cn1c-2c(C2CCCCC2)c2ccc(C(=O)NS(=O)(=O)CC3CCCO3)cc21 (stereo not drawn) | 2.4 to 500 | 2.4 to 500 | –
6 | CCC(C)S(=O)(=O)NC(=O)c1ccc2c(C3CCCCC3)c3n(c2c1)CC1(C(=O)N2C4CN(C)CC2CN(Cc2ccccc2)C4)CC1c1cc(OC)ccc1-3 (stereo not drawn) | 2.4 to 500 | 2.4 to 500 | –
7 | COc1ccc2c(c1)C1CC1(C(=O)N1C[C@H]3C[C@@H]1CN3CC(C)C)Cn1c-2c(C2CCCCC2)c2ccc(C(=O)NS(=O)(=O)N(C)C)cc21 (stereo partly drawn) | 2.4 to 500 | 2.4 to 500 | –
8 | COc1ccc2c(c1)C1CC1(C(=O)N1CC3CCC1CN3)Cn1c-2c(C2CCCCC2)c2ccc(C(=O)NS(=O)(=O)C3CCC3)cc21 (stereo not drawn) | 2.4 to 500 | 2.4 to 500 | –
9 | COc1ccc2c(c1)C1CC1(C(=O)N1C[C@H]3C[C@@H]1CN3CC(C)C)Cn1c-2c(C2CCCCC2)c2ccc(C(=O)NS(N)(=O)=O)cc21 (stereo partly drawn) | 2.4 to 500 | 2.4 to 500 | –
10 | COc1ccc2c(c1)C1CC1(C(=O)N1C[C@@H]3C[C@H]1CN3C)Cn1c-2c(C2CCCCC2)c2ccc(C(=O)NS(C)(=O)=O)cc21 (stereo partly drawn) | 2.4 to 500 | 2.4 to 500 | –
11 | COc1ccc2c(c1)C1CC1(C(=O)N1CCN3CCC1CC3)Cn1c-2c(C2CCCCC2)c2ccc(C(=O)NS(=O)(=O)C3CC3)cc21 (stereo not drawn) [drawing 71] | – | 2.4 to 500 | 2.4 to 500
12 | COc1ccc2c(c1)C1CC1(C(=O)N1C3CC1CN(C)C3)Cn1c-2c(C2CCCCC2)c2ccc(C(=O)NS(=O)(=O)CCCF)cc21 (stereo not drawn) | 2.4 to 500 | 2.4 to 500 | –
13 | COc1ccc2c(c1)C1CC1(C(=O)N1CCN3CCC1CC3)Cn1c-2c(C2CCCCC2)c2ccc(C(=O)NS(=O)(=O)C(C)C)cc21 (stereo not drawn) | 2.4 to 500 | 2.4 to 500 | –
14 | COc1ccc2c(c1)C1CC1(C(=O)N1C3CCCC1CN(C)C3)Cn1c-2c(C2CCCCC2)c2ccc(C(=O)NS(C)(=O)=O)cc21 (stereo not drawn) | 2.4 to 500 | 2.4 to 500 | –
15 | CCC(C)S(=O)(=O)NC(=O)c1ccc2c(C3CCCCC3)c3n(c2c1)CC1(C(=O)N2C4COCC2COC4)CC1c1cc(OC)ccc1-3 (stereo not drawn) | 2.4 to 500 | 2.4 to 500 | –
16 | COc1ccc2c(c1)C1CC1(C(=O)N1C3CC1CN(C)C3)Cn1c-2c(C2CCCCC2)c2ccc(C(=O)NS(=O)(=O)C(C)C)cc21 (stereo not drawn) | 2.4 to 500 | 2.4 to 500 | –
17 | COc1ccc2c(c1)[C@@H]1C[C@]1(C(=O)N1CC3CCC1CN3C)Cn1c-2c(C2CCCCC2)c2ccc(C(=O)NS(=O)(=O)N(C)C)cc21 (stereo partly drawn) | 2.4 to 500 | 2.4 to 500 | –
18 | COc1ccc2c(c1)C1CC1(C(=O)N1C3COC[C@@H]1CN(C)C3)Cn1c-2c(C2CCCCC2)c2ccc(C(=O)NS(=O)(=O)C3CCCC3)cc21 (stereo partly drawn) | 2.4 to 500 | 2.4 to 500 | –
19 | COc1ccc2c(c1)C1CC1(C(=O)N1C[C@@H]3C[C@H]1CN3C(=O)OC(C)(C)C)Cn1c-2c(C2CCCCC2)c2ccc(C(=O)NS(=O)(=O)N(C)C)cc21 (stereo partly drawn) | 2.4 to 500 | 2.4 to 500 | –
20 | CCN1C[C@H]2C[C@@H]1CN2C(=O)C12CC1c1cc(OC)ccc1-c1c(C3CCCCC3)c3ccc(C(=O)NS(=O)(=O)C4CC4)cc3n1C2 (stereo partly drawn) [drawing 44] | – | 2.4 to 500 | 2.4 to 500
21 | COc1ccc2c(c1)C1CC1(C(=O)N1C3COCC1CN(C(C)=O)C3)Cn1c-2c(C2CCCCC2)c2ccc(C(=O)NS(=O)(=O)N(C)C)cc21 (stereo not drawn) | 2.4 to 500 | 2.4 to 500 | –
22 | COc1ccc2c(c1)C1CC1(C(=O)N1C3COCC1CN(C(C)C)C3)Cn1c-2c(C2CCCCC2)c2ccc(C(=O)NS(=O)(=O)N(C)C)cc21 (stereo not drawn) | 2.4 to 500 | 2.4 to 500 | –
23 | COc1ccc2c(c1)C1CC1(C(=O)N1CC3(C)CN(C)CC(C)(C1)C3)Cn1c-2c(C2CCCCC2)c2ccc(C(=O)NS(=O)(=O)N(C)C)cc21 (stereo not drawn) | 2.4 to 500 | 2.4 to 500 | –
24 | COc1ccc2c(c1)C1CC1(C(=O)N1C3CN(C)CC1CN(Cc1ccccc1)C3)Cn1c-2c(C2CCCCC2)c2ccc(C(=O)NS(=O)(=O)N(C)C)cc21 (stereo not drawn) | 2.4 to 500 | 2.4 to 500 | –
